Results as given in ChEMBL document CHEMBL1201862, “PubChem BioAssay data set” (2004).
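Interpolation was linear, between the two tested concentrations surrounding the appropriate level; five concentrations were tested over 48 hours in 96-well plates. GI50 marks 50% less growth.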 Calls of active or inactive are those of the source. Rule as the data show it: active = GI50 up to about 1.1 µM and inactive = higher.

What was measured:
Test in all cases: NCI anticancer screen, dose series, 48 h
[1] = tested on: 786-0
[2] = tested on: A498
[3] = tested on: A549
[4] = tested on: ACHN
[5] = tested on: BT-549
[6] = tested on: CAKI-1
[7] = tested on: CCRF-CEM
[8] = tested on: COLO 205
[9] = tested on: DU-145
[10] = tested on: EKVX
[11] = tested on: HCC 2998
[12] = tested on: HCT-116
[13] = tested on: HCT-15
[14] = tested on: HL-60
[15] = tested on: HOP-62
[16] = tested on: HOP-92
[17] = tested on: HT-29
[18] = tested on: Hs-578T
[19] = tested on: IGROV-1
[20] = tested on: K562
[21] = tested on: KM12
[22] = tested on: LOX IMVI
[23] = tested on: M14
[24] = tested on: MCF7
[25] = tested on: MDA-MB-231
[26] = tested on: MDA-MB-435
[27] = tested on: MDA-N
[28] = tested on: MOLT-4
[29] = tested on: Malme-3M
[30] = tested on: NCI-H226
[31] = tested on: NCI-H23
[32] = tested on: NCI-H460
[33] = tested on: NCI-H522
[34] = tested on: NCI/ADR-RES
[35] = tested on: OVCAR-3
[36] = tested on: OVCAR-4
[37] = tested on: OVCAR-5
[38] = tested on: OVCAR-8
[39] = tested on: PC-3
[40] = tested on: RPMI-8226
[41] = tested on: RXF 393
[42] = tested on: SF-268
[43] = tested on: SF-295
[44] = tested on: SF-539
[45] = tested on: SK-MEL-28
[46] = tested on: SK-MEL-2
[47] = tested on: SK-MEL-5
[48] = tested on: SK-OV-3
[49] = tested on: SN12C
[50] = tested on: SNB-19
[51] = tested on: SNB-75
[52] = tested on: SR
[53] = tested on: SW-620
[54] = tested on: T47D
[55] = tested on: TK-10
[56] = tested on: U-251
[57] = tested on: UACC-257
[58] = tested on: UACC-62
[59] = tested on: UO-31

Measured: GI50

CC(C)OC(=O)C(NC(=O)C(CC(=O)OCc1ccccc1)NC(=O)OCc1ccccc1)NC(=O)C1C(C)(C)CCC1(C)C (configuration not stated)
11 µM: [13]
inactive: [1] 2.22 µM | [2] 2.5 µM | [3] 2.22 µM | [4] 3.56 µM | [5] 17.4 µM | [6] 9.98 µM | [7] 3.18 µM | [8] 2.99 µM | [9] 22.9 µM | [10] 3.85 µM | [11] 24.9 µM | [12] 3.61 µM | [14] 3.76 µM | [15] 6.56 µM | [16] 11 µM | [17] 3.58 µM | [18] 6.98 µM | [19] 13.7 µM | [20] 4.31 µM | [21] 9.02 µM | [22] 4.56 µM | [23] 21.5 µM | [24] 14.9 µM | [25] 2.1 µM | [26] 23.8 µM | [27] 10.1 µM | [28] 8.04 µM | [29] 18 µM | [30] 7.21 µM | [31] 10.2 µM | [32] 16.7 µM | [33] 11.6 µM | [34] 4.98 µM | [35] 2.77 µM | [36] 3.55 µM | [37] 14.8 µM | [38] 2 µM | [39] 2.8 µM | [40] 7.5 µM | [41] 4.43 µM | [42] 15 µM | [43] 14.1 µM | [44] 2.81 µM | [45] > 42 µM | [46] 19.5 µM | [47] 13.7 µM | [48] 4.18 µM | [49] 3.84 µM | [50] 4.29 µM | [51] 2.68 µM | [52] 2.64 µM | [53] 3.23 µM | [54] 26.5 µM | [55] 18.8 µM | [56] 2.14 µM | [57] 30.3 µM | [58] 20.7 µM | [59] 4.84 µM

Brc1ccc2[nH]cc(-c3csc(-c4c[nH]c5ccccc45)n3)c2c1
2.33 µM: [13]
inactive: [1] 2.37 µM | [2] 5.19 µM | [3] 3.67 µM | [4] 5.5 µM | [5] 5.7 µM | [6] 2.9 µM | [7] 2.11 µM | [8] 2.08 µM | [9] 3.52 µM | [10] 2.69 µM | [11] 2.08 µM | [12] 2.47 µM | [14] 5.64 µM | [15] 4.34 µM | [16] 3 µM | [17] 1.8 µM | [18] 4.81 µM | [19] 2.2 µM | [20] 3.03 µM | [21] 2.3 µM | [22] 2.1 µM | [23] 1.98 µM | [24] 2.13 µM | [25] 2.17 µM | [26] 3.84 µM | [27] 2.88 µM | [28] 2.05 µM | [29] 3.03 µM | [30] 1.82 µM | [31] 2.39 µM | [32] 2.61 µM | [33] 1.81 µM | [34] 2.75 µM | [35] 3.01 µM | [36] 5.42 µM | [37] 2.02 µM | [38] 4.9 µM | [39] 3.54 µM | [40] 3.08 µM | [41] 3.61 µM | [42] 2.66 µM | [43] 2.42 µM | [44] 4.72 µM | [45] 5.06 µM | [46] 3.17 µM | [47] 2.24 µM | [48] 7.52 µM | [49] 3.66 µM | [50] 3.32 µM | [51] 10.1 µM | [52] 3.39 µM | [53] 2.75 µM | [54] 4.24 µM | [55] 3.61 µM | [56] 2.98 µM | [57] 5.07 µM | [58] 5.5 µM | [59] 2.93 µM

CC1(C)O[C@@H]2[C@@H]3OC(=O)C[C@@H]3[C@@H](COCc3ccccc3)[C@@H]2O1
inactive: [1] > 100 µM | [2] > 100 µM | [3] > 100 µM | [4] > 100 µM | [5] > 100 µM | [6] > 100 µM | [7] > 100 µM | [8] > 100 µM | [9] > 100 µM | [10] > 100 µM | [11] > 100 µM | [12] > 100 µM | [14] > 100 µM | [15] > 100 µM | [16] > 100 µM | [17] > 100 µM | [18] > 100 µM | [19] > 100 µM | [20] > 100 µM | [21] > 100 µM | [22] > 100 µM | [23] > 100 µM | [24] > 100 µM | [25] > 100 µM | [26] > 100 µM | [27] > 100 µM | [28] > 100 µM | [29] > 100 µM | [30] > 100 µM | [31] > 100 µM | [32] > 100 µM | [33] > 100 µM | [34] > 100 µM | [35] > 100 µM | [36] > 100 µM | [37] > 100 µM | [38] > 100 µM | [39] > 100 µM | [40] > 100 µM | [41] > 100 µM | [42] > 100 µM | [43] > 100 µM | [44] > 100 µM | [45] > 100 µM | [46] > 100 µM | [47] > 100 µM | [48] > 100 µM | [49] > 100 µM | [50] > 100 µM | [51] > 100 µM | [52] > 100 µM | [53] > 100 µM | [54] > 100 µM | [55] > 100 µM | [56] > 100 µM | [57] > 100 µM | [58] > 100 µM | [59] > 100 µM
> 100 µM: [13]
